From patent US8859549B2, “Potassium channel modulators” (AbbVie, Inc., priority 2011, dated 2014)

Experiments:
[1] = biological target: T1, KCNQ 2/3 channels (Homo sapiens, UniProt O43525+O43526); assay: KCNQ 2/3 channel activation, thallium flux FLIPR assay (BTC-AM dye); assay type: cell-based; settings: for Emax: HEK293, maximum response relative to the response of 10 μM retigabine (set at 100%), HEK293 KCNQ2/KCNQ3 cells, read-out: % MAX; for EC50: HEK293 cells stably expressing human KCNQ2 and KCNQ3 subunits, thallium-induced fluorescence, 4 min compound incubation
T1 construct: expressed in transfected cells; host or cells: HEK293
How it was run: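 HEK293 cells stably expressing human KCNQ2/KCNQ3 were loaded with BTC-AM (3 μg/mL, 2 h, RT) and preincubated with compound for 4 min in pH 7.3 gluconate buffer containing 0.1 mM ouabain. Flux was triggered by 6 mM TlNO3/10 mM K2SO4 and read for 3 min; EC50 came from summed responses over basal, with maximum relative to 10 μM retigabine (100%).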

[2] = test system: Sprague-Dawley rats; assay: Spinal Nerve Ligation (SNL) model of neuropathic pain, tactile allodynia; assay type: in vivo, rat; settings: about 30 mg/kg i.p., 30 minutes or more before testing
From the text: Adult male Sprague-Dawley rats (250-300 g body weight, Charles River Laboratories, Portage, Mich.) were used. Animal handling and experimental protocols were approved by the Institutional Animal Care and Use Committee (IACUC) at Abbott Laboratories. For all surgical procedures, animals were maintained under isoflurane anesthesia (4-5% to induce, 1-3% to maintain), and the incision sites were sterilized using a 10% povidone-iodine solution prior to and after surgeries.
Tactile (mechanical) allodynia was measured using calibrated von Frey filaments (Stoelting, Wood Dale, Ill.) as described in Chaplan, S. R., F. W. Bach, J. M. Pogrel, J. M. Chung and T. L. Yaksh, 1994, Quantitative assessment of tactile allodynia in the rat paw, J. Neurosci. Methods, 53, 55. Rats were placed into inverted individual plastic containers (20×12.5×20 cm) on top of a suspended wire mesh grid, and acclimated to the test chambers for 20 minutes. The von Frey filaments were presented perpendicularly to the plantar surface of the selected hind paw, and then held in this position for approximately 8 sec with enough force to cause a slight bend in the filament. Positive responses included an abrupt withdrawal of the hind paw from the stimulus, or flinching behavior immediately following removal of the stimulus. A 50% withdrawal threshold was determined using an up-down procedure (Dixon, W. J., 1980, Efficient analysis of experimental observations, Ann. Rev. Pharmacol. Toxicol., 20, 441). […] Tactile allodynia thresholds were also assessed in several control groups, including naive, sham-operated, and saline infused animals as well as in the contralateral paws of nerve-injured rats. To evaluate the anti-nociceptive effects, animals were administered vehicle or test compound and tactile allodynia was assessed 30 minutes after i.p. administration.
A model of spinal nerve ligation-induced (SNL model) neuropathic pain as originally described by Kim and Chung (Kim, S. H. and J. M. Chung, 1992, Pain 50, 355) was used to test a compound of the present application The left L5 and L6 spinal nerves of the rat were isolated adjacent to the vertebral column and tightly ligated with a 5-0 silk suture distal to the DRG, and care taken to avoid injury of the L4 spinal nerve. The same procedure was performed on Sham rats, but without nerve ligation. All animals were allowed to recover for at least one week and not more than three weeks prior to assessment of tactile allodynia.
Compounds were injected (i.p) 30 minutes or more before testing.

Compound	Emax [1]	EC50 [1]	change in paw withdrawal latency versus vehicle [2]
C[C@@H]1CN(c2nn(NC(=O)Cc3ccc(Cl)cc3)c(=O)c3ccccc23)C[C@H](C)O1 [Example 81, 2-(4-chlorophenyl)-N-{4-[cis-2,6-dimethylmorpholin-4-yl]-1-oxophthalazin-2(1H)-yl}acetamide]	85.1%	663 nM	statistically significant change
CC(C)(C)OC(=O)NCc1nn(NC(=O)Cc2ccc(Cl)cc2)c(=O)c2ccccc12 [Example 41, tert-butyl[(3-{[(4-chlorophenyl)acetyl]amino}-4-oxo-3,4-dihydrophthalazin-1-yl)methyl]carbamate]	90.3%	975 nM	statistically significant change
CN1CCN(c2nn(NC(=O)Cc3ccc(Cl)cc3)c(=O)c3ccccc23)CC1 [Example 107, 2-(4-chlorophenyl)-N-[4-(4-methylpiperazin-1-yl)-1-oxophthalazin-2(1H)-yl]acetamide]	24.3%	–	–
O=C(Cc1ccc(Cl)cc1)Nn1nc(C(=O)O)c2ccccc2c1=O [Example 65, 3-{[(4-chlorophenyl)acetyl]amino}-4-oxo-3,4-dihydrophthalazine-1-carboxylic acid]	30.1%	–	–
O=C(CC1CCCCC1)Nn1nc(N2CCOCC2)c2ccccc2c1=O [Example 138, 2-cyclohexyl-N-[4-(morpholin-4-yl)-1-oxophthalazin-2(1H)-yl]acetamide]	153%	3890 nM	–
CCOC(=O)Cc1nn(NC(=O)Cc2ccc(Cl)cc2)c(=O)c2ccccc12 [Example 116, ethyl(3-{[(4-chlorophenyl)acetyl]amino}-4-oxo-3,4-dihydrophthalazin-1-yl)acetate]	61.4%	7620 nM	–
O=C(Cc1ccccc1Br)Nn1nc(N2CCOCC2)c2ccccc2c1=O [Example 153, 2-(2-bromophenyl)-N-[4-(morpholin-4-yl)-1-oxophthalazin-2(1H)-yl]acetamide]	1.17%	–	–

Further compounds by falling EC50 [1], results first:

Emax [1]	EC50 [1]	Compound	change in paw withdrawal latency versus vehicle [2]
105%	221 nM	CN(Cc1ccccc1)c1nn(NC(=O)Cc2ccc(Cl)cc2)c(=O)c2ccccc12 [Example 36, N-{4-[benzyl(methyl)amino]-1-oxophthalazin-2(1H)-yl}-2-(4-chlorophenyl)acetamide]	–
149%	143 nM	O=C(CC1CC2CCC1C2)Nn1nc(-c2ccc(C(F)(F)F)nc2)c2ccccc2c1=O (racemic) [Example 43, (±)-2-[(exo)-bicyclo[2.2.1]hept-2-yl]-N-{1-oxo-4-[6-(trifluoromethyl)pyridin-3-yl]phthalazin-2(1H)-yl}acetamide]	statistically significant change
127%	126 nM	O=C(CC1CC2CCC1C2)Nn1nc(-c2ccnc(C(F)(F)F)c2)c2ccccc2c1=O (racemic) [Example 76, (±)-2-[(exo)-bicyclo[2.2.1]hept-2-yl]-N-{1-oxo-4-[2-(trifluoromethyl)pyridin-4-yl]phthalazin-2(1H)-yl}acetamide]	statistically significant change
79.9%	69.9 nM	O=C(Cc1cc(F)cc(F)c1)Nn1nc(S(=O)(=O)c2ccccc2)c2ccccc2c1=O [Example 68, 2-(3,5-difluorophenyl)-N-[1-oxo-4-(phenylsulfonyl)phthalazin-2(1H)-yl]acetamide]	statistically significant change
99.3%	69.3 nM	O=C(Cc1ccc(Br)cc1)Nn1nc(S(=O)(=O)c2ccccc2)c2ccccc2c1=O [Example 206, 2-(4-bromophenyl)-N-[1-oxo-4-(phenylsulfonyl)phthalazin-2(1H)-yl]acetamide]	–
151%	58.3 nM	O=C(CC12CC3CC(CC1C3)C2)Nn1nc(S(=O)(=O)c2ccccc2)c2ccccc2c1=O [Example 218, 2-(hexahydro-2,5-methanopentalen-3a(1H)-yl)-N-[1-oxo-4-(phenylsulfonyl)phthalazin-2(1H)-yl]acetamide]	–
118%	40.9 nM	O=C(Cc1ccc(Cl)cc1)Nn1nc(S(=O)(=O)c2ccccc2)c2ccccc2c1=O [Example 69, 2-(4-chlorophenyl)-N-[1-oxo-4-(phenylsulfonyl)phthalazin-2(1H)-yl]acetamide]	statistically significant change
